Consider two compounds from patent US7311933B2, “Packaging material for inhibiting microbial growth” (Eastman Kodak Company, priority 2004, dated 2007).

This series is classed as physicochemical. The source says:
Desferrioxamine B is a commercially available iron chelating drug, desferal®. […] (1980). […] 89, p.

On to `O=C(NCCCCN(CCCNC(=O)c1cc(S(=O)(=O)O)cc(O)c1O)C(=O)c1cc(S(=O)(=O)O)cc(O)c1O)c1cc(S(=O)(=O)O)cc(O)c1O` [3,4-LICAMS], for which the “selectivity: difference between the log stability constants” value is listed as 26.8. As for `O=C(O)CN(CCN(CC(=O)O)CC(=O)O)CCN(CC(=O)O)CC(=O)O` [DTPA, diethylenetriaminepentaacetic acid], the “selectivity: difference between the log stability constants” value is recorded as 17.2.
